Measurements reported in ChEMBL document CHEMBL1909046, “DrugMatrix in vitro pharmacology data”.

Assays:
[1] = target: Beta-3 adrenergic receptor (Homo sapiens, UniProt P13945); assay: DRUGMATRIX: Adrenergic beta3 radioligand binding (ligand: [125I] Cyanopindolol); type: cell membranes, HEK293, Membrane; conditions: hek293; Not Active = under 50% inhibition at 10 µM
Leukotriene C4 synthase = target: T1, Leukotriene C4 synthase (Cavia porcellus, UniProt A6XA80); assay: biochemical; type: tissue-based, Lung;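 also: enzyme inhibition assay of leukotriene C4 synthase, using LTA4 as the substrate; in other assays of this panel Not Active means under 50% inhibition at 10 µM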
T1 sequence (A6XA80 whole entry): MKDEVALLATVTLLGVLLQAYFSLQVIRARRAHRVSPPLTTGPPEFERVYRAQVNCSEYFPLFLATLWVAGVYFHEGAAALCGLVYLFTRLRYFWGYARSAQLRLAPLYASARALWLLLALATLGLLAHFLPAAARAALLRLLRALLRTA

[2] = target: Tyrosine-protein kinase Fyn (Homo sapiens, UniProt P06241); assay: biochemical; type: cell-based, Insect cells; conditions: insect cells;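 also: enzymatic inhibition of Fyn kinase activity measured with Poly(Glu:Tyr) as the phosphorylation substrate; in other assays of this panel Not Active means under 50% inhibition at 10 µM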
Cytochrome P450 2C19 = Cytochrome P450 2C19 (Homo sapiens, UniProt P33261); conditions: bti-tn-5b1-4; also: in other assays of this panel Not Active means under 50% inhibition at 10 µM
D(4) dopamine receptor = target: T2, D(4) dopamine receptor (Homo sapiens, UniProt P21917); assay: DRUGMATRIX: Dopamine D4.2 radioligand binding (ligand: [3H] Spiperone); type: cell membranes, CHO-K1, Membrane; conditions: cho-k1; Not Active = under 50% inhibition at 10 µM
T2 sequence (P21917 whole entry): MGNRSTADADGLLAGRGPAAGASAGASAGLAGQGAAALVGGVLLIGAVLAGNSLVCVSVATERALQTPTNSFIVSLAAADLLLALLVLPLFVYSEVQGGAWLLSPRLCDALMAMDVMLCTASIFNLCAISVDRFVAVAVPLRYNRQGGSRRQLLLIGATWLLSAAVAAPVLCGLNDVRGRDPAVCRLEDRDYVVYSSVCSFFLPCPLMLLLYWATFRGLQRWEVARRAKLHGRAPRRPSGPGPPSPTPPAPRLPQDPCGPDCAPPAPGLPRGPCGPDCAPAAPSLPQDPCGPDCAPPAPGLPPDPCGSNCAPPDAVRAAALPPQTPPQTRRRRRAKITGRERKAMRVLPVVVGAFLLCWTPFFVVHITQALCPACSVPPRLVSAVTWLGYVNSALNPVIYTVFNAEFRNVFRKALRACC

[3] = DRUGMATRIX: Glutamate, NMDA, Phencyclidine radioligand binding (ligand: [3H] TCP); type: cell membranes, Rattus norvegicus, Wistar, Cerebral cortex, Membrane; conditions: Not Active = under 50% inhibition at 10 µM
[4] = target: T3, C-C chemokine receptor type 4 (Homo sapiens, UniProt P51679); type: cell membranes, Membrane; conditions: chem-1; also: in other assays of this panel Not Active means under 50% inhibition at 10 µM
T3 sequence (P51679 whole entry): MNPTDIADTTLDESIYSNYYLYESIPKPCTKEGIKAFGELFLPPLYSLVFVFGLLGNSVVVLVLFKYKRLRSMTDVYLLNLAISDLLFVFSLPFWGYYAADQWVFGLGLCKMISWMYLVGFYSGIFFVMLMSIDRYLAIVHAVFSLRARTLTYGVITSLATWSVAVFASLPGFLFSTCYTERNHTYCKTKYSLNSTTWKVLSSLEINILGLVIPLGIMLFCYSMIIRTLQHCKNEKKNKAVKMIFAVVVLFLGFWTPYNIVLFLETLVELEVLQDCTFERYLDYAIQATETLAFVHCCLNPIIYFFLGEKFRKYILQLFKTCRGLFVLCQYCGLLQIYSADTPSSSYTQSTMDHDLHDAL

[5] = DRUGMATRIX: Glutamate, Kainate radioligand binding (ligand: [3H] Kainic acid); type: cell membranes, Rattus norvegicus, Wistar, Brain, Membrane; conditions: Not Active = under 50% inhibition at 10 µM
[6] = DRUGMATRIX: Sigma2 radioligand binding (ligand: [3H] Ifenprodil); type: cell membranes, Rattus norvegicus, Wistar, Brain, Membrane; conditions: Not Active = under 50% inhibition at 10 µM
[7] = DRUGMATRIX: Phosphodiesterase PDE3 enzyme inhibition (substrate: [3H]cAMP + cAMP); type: tissue-based, Homo sapiens; conditions: platelet; Not Active = under 50% inhibition at 10 µM
[8] = target: Sodium-dependent dopamine transporter (Homo sapiens, UniProt Q01959); assay: DRUGMATRIX: Dopamine Transporter radioligand binding (ligand: [125I] RTI-55); type: cell membranes, CHO-K1, Membrane; conditions: cho-k1; Not Active = under 50% inhibition at 10 µM
[9] = DRUGMATRIX: Purinergic P2X radioligand binding (ligand: [3H] alpha, beta-Methylene-ATP); type: cell membranes, Oryctolagus cuniculus, New Zealand albino, Urinary bladder, Membrane; conditions: Not Active = under 50% inhibition at 10 µM
Substance-K receptor = target: T4, Substance-K receptor (Homo sapiens, UniProt P21452); type: cell membranes, CHO, Membrane; conditions: cho; also: in other assays of this panel Not Active means under 50% inhibition at 10 µM
T4 sequence (P21452 whole entry): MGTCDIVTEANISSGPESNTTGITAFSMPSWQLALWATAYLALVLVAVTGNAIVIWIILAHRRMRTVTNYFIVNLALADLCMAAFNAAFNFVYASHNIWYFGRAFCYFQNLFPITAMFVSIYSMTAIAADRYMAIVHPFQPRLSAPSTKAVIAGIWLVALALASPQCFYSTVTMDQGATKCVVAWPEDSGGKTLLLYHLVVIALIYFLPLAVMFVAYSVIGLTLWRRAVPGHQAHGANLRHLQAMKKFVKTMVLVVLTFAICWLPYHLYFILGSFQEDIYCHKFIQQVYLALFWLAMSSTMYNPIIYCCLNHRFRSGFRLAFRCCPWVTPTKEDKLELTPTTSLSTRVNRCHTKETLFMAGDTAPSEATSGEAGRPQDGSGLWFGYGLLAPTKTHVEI

[10] = target: 5-hydroxytryptamine receptor 4 (Cavia porcellus, UniProt O70528); type: cell membranes, Dunkin-Hartley, Striatum, Membrane; also: in other assays of this panel Not Active means under 50% inhibition at 10 µM
[11] = target: C-C chemokine receptor type 2 (Homo sapiens, UniProt P41597); type: cell membranes, CHO-K1, Membrane; conditions: cho-k1; also: in other assays of this panel Not Active means under 50% inhibition at 10 µM
Histamine H2 receptor = Histamine H2 receptor (Homo sapiens, UniProt P25021); type: cell membranes, CHO-K1, Membrane; conditions: cho-k1; also: in other assays of this panel Not Active means under 50% inhibition at 10 µM
[12] = target: T5, Muscarinic acetylcholine receptor M4 (Homo sapiens, UniProt P08173); type: cell membranes, CHO-K1, Membrane; conditions: cho-k1; also: in other assays of this panel Not Active means under 50% inhibition at 10 µM
T5 sequence (P08173 whole entry): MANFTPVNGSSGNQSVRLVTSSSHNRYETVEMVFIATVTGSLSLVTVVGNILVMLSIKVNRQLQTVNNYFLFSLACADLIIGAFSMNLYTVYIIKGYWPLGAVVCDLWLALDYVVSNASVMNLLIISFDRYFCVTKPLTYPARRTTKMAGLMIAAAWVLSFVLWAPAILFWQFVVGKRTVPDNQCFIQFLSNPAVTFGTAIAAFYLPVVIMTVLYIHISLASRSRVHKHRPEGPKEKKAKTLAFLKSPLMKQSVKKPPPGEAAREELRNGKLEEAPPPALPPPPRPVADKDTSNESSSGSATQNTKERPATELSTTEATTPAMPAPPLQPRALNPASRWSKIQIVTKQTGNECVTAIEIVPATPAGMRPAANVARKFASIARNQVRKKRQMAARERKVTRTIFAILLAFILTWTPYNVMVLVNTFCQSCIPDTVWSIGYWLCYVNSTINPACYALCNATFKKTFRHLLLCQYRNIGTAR

Sodium-dependent dopamine transporter, sequence (Q01959 whole entry): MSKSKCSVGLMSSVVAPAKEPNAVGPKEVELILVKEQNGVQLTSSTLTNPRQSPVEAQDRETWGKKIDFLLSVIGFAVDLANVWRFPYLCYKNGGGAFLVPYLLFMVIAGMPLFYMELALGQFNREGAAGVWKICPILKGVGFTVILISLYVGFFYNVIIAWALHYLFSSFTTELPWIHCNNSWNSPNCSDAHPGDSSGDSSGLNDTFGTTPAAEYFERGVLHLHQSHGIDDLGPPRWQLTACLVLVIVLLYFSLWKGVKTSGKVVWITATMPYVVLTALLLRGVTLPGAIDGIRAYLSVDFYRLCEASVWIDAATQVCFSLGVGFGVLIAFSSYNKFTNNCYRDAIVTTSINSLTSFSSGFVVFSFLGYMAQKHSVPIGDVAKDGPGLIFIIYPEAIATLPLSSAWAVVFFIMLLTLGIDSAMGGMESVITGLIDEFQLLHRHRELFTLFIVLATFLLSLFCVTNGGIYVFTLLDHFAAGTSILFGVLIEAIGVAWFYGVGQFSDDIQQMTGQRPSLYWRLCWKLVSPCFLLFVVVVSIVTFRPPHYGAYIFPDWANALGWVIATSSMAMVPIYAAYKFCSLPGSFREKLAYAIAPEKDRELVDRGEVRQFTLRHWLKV
Histamine H2 receptor, sequence (P25021 whole entry): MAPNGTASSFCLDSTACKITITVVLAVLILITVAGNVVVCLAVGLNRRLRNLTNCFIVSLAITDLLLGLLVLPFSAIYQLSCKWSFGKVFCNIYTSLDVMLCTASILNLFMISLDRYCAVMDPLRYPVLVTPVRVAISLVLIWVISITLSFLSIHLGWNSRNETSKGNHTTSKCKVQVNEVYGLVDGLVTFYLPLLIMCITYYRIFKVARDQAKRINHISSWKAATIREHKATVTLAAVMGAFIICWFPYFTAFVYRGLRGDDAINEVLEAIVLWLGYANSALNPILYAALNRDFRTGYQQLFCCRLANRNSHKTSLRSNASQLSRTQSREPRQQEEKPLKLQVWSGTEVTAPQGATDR
Tyrosine-protein kinase Fyn, sequence (P06241 whole entry): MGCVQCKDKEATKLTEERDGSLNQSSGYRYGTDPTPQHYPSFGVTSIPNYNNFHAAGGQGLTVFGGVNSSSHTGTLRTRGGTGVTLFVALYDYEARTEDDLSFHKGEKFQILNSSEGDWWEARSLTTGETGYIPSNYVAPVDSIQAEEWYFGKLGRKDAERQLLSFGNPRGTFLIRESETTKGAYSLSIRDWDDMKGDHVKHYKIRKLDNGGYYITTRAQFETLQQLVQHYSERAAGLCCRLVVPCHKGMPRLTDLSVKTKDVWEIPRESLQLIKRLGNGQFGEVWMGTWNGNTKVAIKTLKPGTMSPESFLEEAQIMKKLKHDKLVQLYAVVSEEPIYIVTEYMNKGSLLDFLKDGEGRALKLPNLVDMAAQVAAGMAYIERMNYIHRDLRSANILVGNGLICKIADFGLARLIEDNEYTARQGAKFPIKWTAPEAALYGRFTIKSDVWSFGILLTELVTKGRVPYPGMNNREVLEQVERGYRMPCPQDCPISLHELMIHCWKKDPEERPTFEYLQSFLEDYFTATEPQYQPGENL
Cytochrome P450 2C19, sequence (P33261 whole entry): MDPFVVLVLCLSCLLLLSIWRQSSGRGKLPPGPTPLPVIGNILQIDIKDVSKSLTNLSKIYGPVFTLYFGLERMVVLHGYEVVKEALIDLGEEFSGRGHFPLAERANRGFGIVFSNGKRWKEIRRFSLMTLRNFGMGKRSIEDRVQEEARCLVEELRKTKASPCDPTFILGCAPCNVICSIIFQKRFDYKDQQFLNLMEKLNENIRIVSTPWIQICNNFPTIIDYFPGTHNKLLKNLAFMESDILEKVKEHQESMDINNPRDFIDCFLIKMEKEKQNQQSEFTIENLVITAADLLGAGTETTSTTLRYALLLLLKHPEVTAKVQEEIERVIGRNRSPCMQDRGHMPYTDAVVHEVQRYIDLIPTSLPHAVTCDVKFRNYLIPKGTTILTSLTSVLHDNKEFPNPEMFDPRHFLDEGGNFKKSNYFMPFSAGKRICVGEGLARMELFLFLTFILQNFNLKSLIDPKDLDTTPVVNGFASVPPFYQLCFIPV
5-hydroxytryptamine receptor 4, sequence (O70528 whole entry): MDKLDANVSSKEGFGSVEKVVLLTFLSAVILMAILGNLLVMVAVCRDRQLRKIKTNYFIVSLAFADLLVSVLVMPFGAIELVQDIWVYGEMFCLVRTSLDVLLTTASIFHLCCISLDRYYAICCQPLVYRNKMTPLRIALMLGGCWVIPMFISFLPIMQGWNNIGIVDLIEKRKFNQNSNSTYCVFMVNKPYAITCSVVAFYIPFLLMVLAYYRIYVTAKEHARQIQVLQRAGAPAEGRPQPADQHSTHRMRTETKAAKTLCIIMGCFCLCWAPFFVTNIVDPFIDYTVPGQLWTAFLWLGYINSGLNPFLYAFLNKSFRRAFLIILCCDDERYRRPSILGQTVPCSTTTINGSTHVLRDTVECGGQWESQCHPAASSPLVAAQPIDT
C-C chemokine receptor type 2, sequence (P41597 whole entry): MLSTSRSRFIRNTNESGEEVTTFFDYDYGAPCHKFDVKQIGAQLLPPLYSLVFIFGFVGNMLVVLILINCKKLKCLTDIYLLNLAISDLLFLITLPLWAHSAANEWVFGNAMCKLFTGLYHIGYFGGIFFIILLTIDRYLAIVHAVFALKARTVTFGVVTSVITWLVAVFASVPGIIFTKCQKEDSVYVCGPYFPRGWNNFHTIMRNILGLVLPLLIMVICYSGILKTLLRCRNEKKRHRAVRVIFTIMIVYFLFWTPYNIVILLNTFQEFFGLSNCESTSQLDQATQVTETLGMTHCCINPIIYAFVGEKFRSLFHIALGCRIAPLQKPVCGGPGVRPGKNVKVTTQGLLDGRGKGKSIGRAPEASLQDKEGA
Beta-3 adrenergic receptor, sequence (P13945 whole entry): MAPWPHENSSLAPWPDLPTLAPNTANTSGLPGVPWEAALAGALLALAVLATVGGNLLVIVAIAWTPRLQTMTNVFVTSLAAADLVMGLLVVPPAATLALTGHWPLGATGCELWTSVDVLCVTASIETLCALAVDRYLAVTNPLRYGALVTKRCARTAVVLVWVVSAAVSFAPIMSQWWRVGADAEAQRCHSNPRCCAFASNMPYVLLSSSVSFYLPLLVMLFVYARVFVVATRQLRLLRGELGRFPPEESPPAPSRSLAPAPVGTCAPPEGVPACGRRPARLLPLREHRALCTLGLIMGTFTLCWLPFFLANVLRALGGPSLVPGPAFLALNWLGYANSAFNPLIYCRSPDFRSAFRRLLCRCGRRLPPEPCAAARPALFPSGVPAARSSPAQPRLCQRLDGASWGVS

OCc1ccccc1 [BENZYL ALCOHOL]
Not Active: IC50 [1] | IC50 (Leukotriene C4 synthase) | IC50 [2] | IC50 (Cytochrome P450 2C19) | Ki (Cytochrome P450 2C19) | IC50 (D(4) dopamine receptor) | IC50 [3] | Ki [3] | IC50 [4] | IC50 [5] | Ki [5] | IC50 [6] | Ki [6] | IC50 [7] | Ki [7] | IC50 [8] | IC50 [9] | Ki [9] | IC50 (Substance-K receptor) | IC50 [10] | IC50 [11] | IC50 (Histamine H2 receptor) | IC50 [12]

CC(C)(Oc1ccc(CCNC(=O)c2ccc(Cl)cc2)cc1)C(=O)O [BEZAFIBRATE]
Not Active: IC50 [1] | IC50 (Leukotriene C4 synthase) | IC50 [2] | IC50 (Cytochrome P450 2C19) | Ki (Cytochrome P450 2C19) | IC50 (D(4) dopamine receptor) | IC50 [3] | Ki [3] | IC50 [4] | IC50 [5] | Ki [5] | IC50 [6] | Ki [6] | IC50 [7] | Ki [7] | IC50 [8] | IC50 [9] | Ki [9] | IC50 (Substance-K receptor) | IC50 [10] | IC50 [11] | IC50 (Histamine H2 receptor) | IC50 [12]

CCCC[C@@H](CC)COC(=O)c1ccccc1C(=O)OC[C@@H](CC)CCCC [BIS(2-ETHYLHEXYL)PHTHALATE]
Not Active: IC50 [1] | IC50 (Leukotriene C4 synthase) | IC50 [2] | IC50 (Cytochrome P450 2C19) | Ki (Cytochrome P450 2C19) | IC50 (D(4) dopamine receptor) | IC50 [3] | Ki [3] | IC50 [4] | IC50 [5] | Ki [5] | IC50 [6] | Ki [6] | IC50 [7] | Ki [7] | IC50 [8] | IC50 [9] | Ki [9] | IC50 (Substance-K receptor) | IC50 [10] | IC50 [11] | IC50 (Histamine H2 receptor) | IC50 [12]

Brc1ccccc1 [BROMOBENZENE]
Not Active: IC50 [1] | IC50 (Leukotriene C4 synthase) | IC50 [2] | IC50 (Cytochrome P450 2C19) | Ki (Cytochrome P450 2C19) | IC50 (D(4) dopamine receptor) | IC50 [3] | Ki [3] | IC50 [4] | IC50 [5] | Ki [5] | IC50 [6] | Ki [6] | IC50 [7] | Ki [7] | IC50 [8] | IC50 [9] | Ki [9] | IC50 (Substance-K receptor) | IC50 [10] | IC50 [11] | IC50 (Histamine H2 receptor) | IC50 [12]

CC[C@@]1(O)C(=O)OCc2c1cc1n(c2=O)Cc2cc3ccccc3nc2-1 [CAMPTOTHECIN]
Not Active: IC50 [1] | IC50 (Leukotriene C4 synthase) | IC50 [2] | IC50 (Cytochrome P450 2C19) | Ki (Cytochrome P450 2C19) | IC50 (D(4) dopamine receptor) | IC50 [3] | Ki [3] | IC50 [4] | IC50 [5] | Ki [5] | IC50 [6] | Ki [6] | IC50 [7] | Ki [7] | IC50 [8] | IC50 [9] | Ki [9] | IC50 (Substance-K receptor) | IC50 [10] | IC50 [11] | IC50 (Histamine H2 receptor) | IC50 [12]
